One experiment deals with dopamine. The experiment can be described thus: Serum dopamine ELISA after 4-week feeding of mice. The experiment is classed as in vivo, C57BL/6J mice. The conditions noted are these: 4 weeks in drinking water (F4 about 10^7 CFU/ml; ampicillin 1 g/l); control 2.95 ng/ml. The source says:
(§1) Before all animal experiments, animal experimentation was approved and approval number ATG-IACUC-REV-180810 was granted through appropriate procedures by the Institutional Animal Care and Use Committee (IACUC) of AtoGEN, and a guide to ethical animal experiments was followed. 4-week-old C57BL/6J mice were purchased through Central Laboratory Animal (Seoul, Korea), and the experimental groups that were used were a control fed with general feed and drinking water (Ctrl), a gut microbiota dysbiosis experimental group (Amp) fed with general feed and drinking water containing 1 g/l of ampicillin, and an experimental group fed with general feed and drinking water containing about 10^7 CFU/ml of lactic-acid bacteria F4 (F4). Five mice were used for each experimental group. After stabilizing the 4-week-old mice for 1 week, the experiment was conducted for 4 weeks using the experimental groups described above. The entire experiment was independently repeated twice.
(§2) After the 4-week feeding experiment, the mice were anesthetized using ether, and blood was obtained from the heart thereof. […] The serum thus obtained was measured to determine the amounts of dopamine and serotonin in the blood using a dopamine ELISA kit (Abnova, Taiwan) and a serotonin ELISA kit (Abcam, USA).
(ELISA stands for enzyme-linked immunosorbent assay.)

A further experiment concerns serotonin. The experiment can be described thus: Serum serotonin ELISA after 4-week feeding of mice. The experiment is classed as in vivo, C57BL/6J mice. The conditions noted are these: 4 weeks in drinking water (F4 about 10^7 CFU/ml; ampicillin 1 g/l); control 3537.2 ng/ml.
Text: as §1, §2

Experiment [1] relates to mouse macrophage cell line RAW264.7. Briefly: IL-10 ELISA of culture solution of RAW264.7 cells with or without LPS. Type of experiment: cell-based. The settings on record: 1 μg/ml LPS alone (positive control), 24 hr. The procedure: In order to measure the anti-inflammatory effect of F4 lactic-acid bacteria, a cytokine quantification experiment using cells was performed. F4 lactic-acid bacteria as a treatment material were subjected to liquid culture in an MRS broth and were then centrifuged, after which the cells of the strain were recovered and concentrated 10-fold. The concentrated solution thus obtained was treated with lysozyme for 1 hr, lysed through sonication, and then quantified through solid content analysis. […] In order to confirm whether the generation of nitric oxide (NO) as an additional inflammation indicator was inhibited in the LPS-induced group, a predetermined amount of the cell culture supernatant obtained in the cell experiment for measuring cytokines was transferred into 96 wells, and 100 μl of a Griess reagent (modified, SIGMA, USA) was injected thereto, after which reaction was carried out at room temperature for 10 min and absorbance at 540 nm was measured using an ELISA reader. The amount of NO that was produced was calculated by comparing the proportion of NO present in the cell culture solution with the LPS-treated group as a control.

In turn, `CC1(C)S[C@@H]2[C@H](NC(=O)[C@H](N)c3ccccc3)C(=O)N2[C@H]1C(=O)O` [Amp, ampicillin] came in with a dopamine in serum in the experiment on dopamine of 2.09 ng/mL. Also, in the experiment on serotonin, the serotonin in serum worked out at 2365.0 ng/mL.

lipopolysaccharide [LPS] came in with an IL-10 production in experiment [1] of 166.60 pg/mL.

The values above are taken from patent US11318178B2, “Lactobacillus reuteri ATG-F4 strain having function of enhancing dopamine secretion and pharmaceutical composition comprising same for prevention or treatment of psychopathy” (ATOGEN CO., LTD, priority 2018, dated 2022).
